{"source": "patent US6147230A", "about": "“Amino acid dysiherbaine” (priority 1996, dated 2000)", "key": {"[1]": {"test_system": "Glutamate receptors expressed in primary cultures of rat cerebral cortex neurocytes", "assay": "Electrophysiological evaluation (patch clamp whole cell) in primary cultures of rat cerebral cortex neurocytes", "assay_type": "cell-based", "excerpt": "Electrophysiological evaluation in primary cultures of rat cerebral cortex neurocytes"}, "NMDA receptors": {"test_system": "NMDA receptors", "assay": "Radiobinding assay in rat brain synaptic membrane samples, [^3 H] CGS-19755 (NMDA receptors)", "assay_type": "binding", "settings": "[^3 H] CGS-19755 10 nM; 50 mM Tris-acetate pH 8.0; 4° C., 1 hour", "experimental": "(§1) Radiobinding assay in rat brain synaptic membrane samples\n(§2) Rat brain synaptic membrane samples were prepared according to the described protocols (London, E. D., Coyle, J. T., Mol. Pharmacol. 1979, 15, 492; Murphy, D. E., Snowhill, E. W.; Williams, M., Neurochem. Res. 1987, 12, 775 and Murphy, D. E., Hutchison, A. J., Hurt, S. D., Williams, M., Sills, M. A., Br. J. Pharmacol. 1988, 95, 932). Radioligands and incubation conditions used in the binding assay as well as experimental results are as follows:\n[Conditions]: ligand [^3 H] CGS-19755 10 nM; incubation medium 50 mM Tris-acetate buffer (pH 8.0); incubation condition 4° C., 1 hour."}, "AMPA receptors": {"target": "AMPA receptors", "assay": "Radiobinding assay in rat brain synaptic membrane samples, [^3 H] AMPA (AMPA receptors)", "assay_type": "binding", "settings": "[^3 H] AMPA 5 nM, 4° C., 1 hour; for IC50: 100 mM KSCN/50 mM Tris-acetate pH 7.4, read-out: IC50, inhibition of [^3 H] AMPA binding", "experimental": "as §1, §2\n[Conditions]: ligand [^3 H] AMPA 5 nM; incubation medium 100 mM KSCN/50 mM Tris-acetate buffer (pH 7.4); incubation condition 4° C., 1 hour."}, "KA receptors": {"target": "KA receptors", "assay": "Radiobinding assay in rat brain synaptic membrane samples, [^3 H] kainic acid (KA receptors)", "assay_type": "binding", "settings": "[^3 H] kainic acid 1 nM, 4° C., 1 hour; for IC50: 100 mM Tris-acetate pH 7.1, read-out: IC50, inhibition of [^3 H] kainic acid binding", "experimental": "as §1, §2\n[Conditions]: ligand [^3 H] kainic acid 1 nM; incubation medium 100 mM Tris-acetate buffer (pH 7.1); incubation condition 4° C., 1 hour."}, "DDY mouse": {"test_system": "DDY mouse", "assay": "Intraperitoneal administration to mice", "assay_type": "in vivo", "experimental": "Intraperitoneal administration to mice\nCompound (1) was diluted with purified water and intraperitoneally injected into a DDY mouse (male, 15 g)."}, "rats": {"test_system": "rats", "settings": "prior art statement; cited from earlier work"}, "[2]": {"settings": "inward current, patch clamp whole cell; cultures grown 10-21 days"}, "[3]": {"settings": "read-out: EC50, inward current; patch clamp whole cell; cultures grown 10-21 days"}}, "note": "Like-named read-outs stand apart in the source and are kept apart here.", "data": [{"smiles": "N#Cc1cc2[nH]c(=O)c(=O)[nH]c2cc1[N+](=O)[O-]", "note": "[CNQX, 6-cyano-7-nitroquinoxaline-2,3-dione]", "values": [{"measurement": "inhibition of the current induced by Compound (1)", "setting": "[1]; current induced by Compound (1)", "value": "significantly inhibited"}]}, {"smiles": "CNC1C(O)COC2CC(CC(N)C(=O)O)(C(=O)O)OC21", "note": "(centres unmarked) [Compound (1), dysiherbaine]", "values": [{"measurement": "inhibition of [^3 H] CGS-19755 binding to NMDA receptors", "setting": "NMDA receptors", "value": "did not inhibit"}, {"measurement": "IC50", "setting": "AMPA receptors", "value": "224 ± 22", "unit": "nM"}, {"measurement": "inhibition of [^3 H] AMPA binding to AMPA receptors", "setting": "AMPA receptors; pH 7.4", "value": "concentration-dependently inhibited"}, {"measurement": "IC50", "setting": "KA receptors", "value": "59 ± 7.8", "unit": "nM"}, {"measurement": "inhibition of [^3 H] kainic acid binding to KA receptors", "setting": "KA receptors; pH 7.1", "value": "concentration-dependently inhibited"}, {"measurement": "inward current compared with kainic acid", "setting": "[1]; compared with kainic acid", "value": "stronger inward current than kainic acid"}, {"measurement": "Max response", "setting": "[1]; [2]", "value": 1.40, "unit": "nA"}, {"measurement": "induction of inward current", "setting": "[1]; patch clamp whole cell", "value": "concentration-dependently induced a strong inward current"}, {"measurement": "EC50", "setting": "[1]; [3]", "value": 4000, "unit": "nM"}, {"measurement": "behavioural effect, low dose", "setting": "DDY mouse; 20 μg/kg i.p., male DDY mouse", "value": "repeat scratching on the flank"}, {"measurement": "duration of repeated scratching on the flank", "setting": "DDY mouse; 20 μg/kg i.p., male DDY mouse", "value": "10 to 20", "unit": "min"}, {"measurement": "behavioural effect, moderate dose", "setting": "DDY mouse; 1.3 mg/kg i.p., male DDY mouse", "value": "epileptoid spasm"}, {"measurement": "recovery, moderate dose", "setting": "DDY mouse; 1.3 mg/kg i.p., male DDY mouse", "value": "recovered from this condition on the following day"}, {"measurement": "effect, higher dose", "setting": "DDY mouse; 6.5 mg/kg i.p., male DDY mouse", "value": "died in about 40 minutes after violent attack"}, {"measurement": "time to death", "setting": "DDY mouse; 6.5 mg/kg i.p., male DDY mouse", "value": "about 40 minutes"}, {"measurement": "in vivo activity compared with domoic acid", "setting": "DDY mouse; compared with known KA agonist domoic acid", "value": "stronger in vivo activity than a known KA agonist domoic acid"}]}, {"smiles": "C=C(C)[C@H]1CN[C@H](C(=O)O)[C@H]1CC(=O)O", "note": "[Kainic acid, kainic acid]", "values": [{"measurement": "IC50", "setting": "KA receptors", "value": "4.3 ± 0.5", "unit": "nM"}, {"measurement": "Max response", "setting": "[1]; [2]", "value": 1.31, "unit": "nA"}, {"measurement": "EC50", "setting": "[1]; [3]", "value": 40000, "unit": "nM"}, {"measurement": "lesions and neuronal degeneration in rats", "setting": "rats", "value": "induces epileptoid lesions and neuronal degeneration in rats"}]}, {"smiles": "N[C@@H](CCC(=O)O)C(=O)O", "note": "[Glutamic acid, L-glutamic acid, reference compound]", "values": [{"measurement": "IC50", "setting": "AMPA receptors", "value": "124 ± 41", "unit": "nM"}, {"measurement": "IC50", "setting": "KA receptors", "value": "110 ± 18", "unit": "nM"}]}, {"smiles": "Cc1onc(O)c1CC(N)C(=O)O", "note": "(stereo not drawn) [AMPA, α-amino-3-hydroxy-5-methyl-4-isoxazolepropionic acid]", "values": [{"measurement": "IC50", "setting": "AMPA receptors", "value": "5.6 ± 1.1", "unit": "nM"}, {"measurement": "Max response", "setting": "[1]; [2]", "value": 1.26, "unit": "nA"}, {"measurement": "EC50", "setting": "[1]; patch clamp whole cell; cultures grown 10-21 days; read-out: EC50, inward current", "value": 4000, "unit": "nM"}]}]}
